The values that follow come from US20090082399A1, “Carbamate derivatives as positive allosteric modulators of metabotropic glutamate receptors” (Addex Pharma SA, priority 2005, published 2009).

Series [1] addresses T1, mGluR5 (Rattus norvegicus, UniProt P31424).
T1 construct: positive allosteric modulators of mGluR5 receptors in native preparations; endogenous in cells; host or cells: primary cortical astrocytes from Sprague-Dawley rat embryos (E16-19)
The conditions noted are these: cited from earlier work.

The target of a further series is T2, rat mGluR5 (Rattus norvegicus, UniProt P31424).
T2 construct: expressed in transfected cells
T2 sequence (P31424 21-1171 isoform P31424-2 limits assumed): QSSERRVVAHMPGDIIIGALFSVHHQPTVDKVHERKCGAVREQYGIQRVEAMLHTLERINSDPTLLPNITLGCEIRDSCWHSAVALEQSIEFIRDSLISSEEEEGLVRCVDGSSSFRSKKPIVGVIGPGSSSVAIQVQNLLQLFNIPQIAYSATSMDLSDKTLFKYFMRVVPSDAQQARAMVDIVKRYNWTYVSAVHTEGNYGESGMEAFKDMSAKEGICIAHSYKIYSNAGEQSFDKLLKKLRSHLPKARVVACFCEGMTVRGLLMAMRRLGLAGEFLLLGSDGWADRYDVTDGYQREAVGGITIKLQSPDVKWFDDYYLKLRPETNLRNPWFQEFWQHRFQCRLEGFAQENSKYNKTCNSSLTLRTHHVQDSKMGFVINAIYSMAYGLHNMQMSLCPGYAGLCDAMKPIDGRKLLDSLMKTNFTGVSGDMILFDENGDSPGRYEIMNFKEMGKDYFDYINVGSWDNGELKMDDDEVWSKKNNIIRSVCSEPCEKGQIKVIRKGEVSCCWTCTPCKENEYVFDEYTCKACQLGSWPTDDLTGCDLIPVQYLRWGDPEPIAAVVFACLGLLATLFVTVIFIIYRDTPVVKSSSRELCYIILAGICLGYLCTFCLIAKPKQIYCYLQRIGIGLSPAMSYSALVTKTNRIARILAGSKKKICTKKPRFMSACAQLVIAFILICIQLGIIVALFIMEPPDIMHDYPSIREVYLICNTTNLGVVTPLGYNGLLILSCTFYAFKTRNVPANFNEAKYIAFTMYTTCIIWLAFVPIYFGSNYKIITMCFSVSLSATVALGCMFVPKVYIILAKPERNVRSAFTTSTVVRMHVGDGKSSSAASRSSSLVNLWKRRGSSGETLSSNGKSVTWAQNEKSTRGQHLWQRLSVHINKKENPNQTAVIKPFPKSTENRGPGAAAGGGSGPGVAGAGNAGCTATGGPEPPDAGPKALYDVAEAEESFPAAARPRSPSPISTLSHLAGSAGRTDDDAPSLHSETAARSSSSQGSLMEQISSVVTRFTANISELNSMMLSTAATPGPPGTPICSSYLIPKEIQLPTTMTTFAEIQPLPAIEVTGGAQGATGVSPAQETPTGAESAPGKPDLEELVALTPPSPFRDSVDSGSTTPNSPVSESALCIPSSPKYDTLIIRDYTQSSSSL
As to the kind of experiment: mGluR5 assay on HEK-expressing rat mGluR5 (fluorescent cell based Ca2+ mobilization assay). The conditions noted are these: for activation of rat mGluR5 receptors without co-addition of glutamate: HEK-rat mGluR5 cell line, no added glutamate or mGluR5 agonist; for EC50: HEK-293 cells stably expressing rat mGluR5, no co-addition of glutamate, mean of at least three independent experiments in duplicate, read-out: Ca2+ Flux (mean EC50). The protocol: Positive functional expression of HEK-293 cells stably expressing rat mGluR5 receptor was determined by measuring intracellular Ca^2+ changes using a Fluorometric Imaging Plate Reader (FLIPR, Molecular Devices, Sunnyvale, Calif.) in response to glutamate or selective known mGluR5 agonists and antagonists. Rat mGluR5 RT-PCR products in HEK-293 cells were sequenced and found 100% identical to rat mGluR5 Genbank reference sequence (NM_017012). HEK-293 cells expressing mGluR5 were maintained in media containing DMEM, dialyzed Fetal Bovine Serum (10%), Glutamax™ (2 mM), Penicillin (100 units/ml), Streptomycin (100 μg/ml), Geneticin (100 μg/ml) and Hygromycin-B (40 μg/ml) at 37° C./5% CO2.
After one day of incubation, cells were washed with assay buffer containing: 142 mM NaCl, 6 mM KCl, 1 mM […], 1 mM CaCl2, 20 mM HEPES, 1 g/L glucose, 0.125 mM sulfinpyrazone, pH 7.4. After 60 min of loading with 4 uM Fluo-4 (TefLabs, Austin, Tex.), the cells were washed three times with 50 μl of PBS Buffer and resuspended in 45 μl of assay Buffer. The plates were then transferred to a Fluorometric Imaging Plate Reader (FLIPR, Molecular Devices, Sunnyvale, Calif.) for the assessment of intracellular calcium flux. After monitoring the baseline fluorescence for 10 seconds, increasing concentrations of representative compound (from 0.01 to 60 μM) of the present invention diluted in Assay Buffer (15 μl of 4× dilutions) was added to the cell. The final DMSO concentration in the assay was 0.3%. In each experiment, fluorescence was then monitored as a function of time for 3 minutes and the data analyzed using Microsoft Excel and GraphPad Prism. Each data point was also measured two times.
Under these experimental conditions, this HEK-rat mGluR5 cell line is able to directly detect positive allosteric modulators without the need of co-addition of glutamate or mGluR5 agonist.
The concentration-response curves of representative compounds of the present invention were generated using the Prism GraphPad software (Graph Pad Inc, San Diego, USA). The curves were fitted to a four-parameter logistic equation:
(Y=Bottom+(Top−Bottom)/(1+10̂((Log EC50−X)*Hill Slope)
allowing determination of EC50 values.
The Table 1 below represents the mean EC50 obtained from at least three independent experiments of selected molecules performed in duplicate.

The target in series [2] is T1, mGluR5. As to the kind of experiment: mGluR5 binding assay ([3H]-MPEP, rat brain membranes). Particulars: 3 nM [3H]-MPEP, rat cortex membranes, 1 h at 4° C.; read-out: IC50, inhibition of [3H]-MPEP binding. From the text:
Activity of compounds of the invention was examined following a radioligand binding technique using whole rat brain and tritiated 2-methyl-6-(phenylethynyl)-pyridine ([^3H]-MPEP) as a ligand following similar methods than those described in Gasparini F. et al. (2002) Bioorg. Med. Chem. Lett., 12, 407-409 and in Anderson J. F. et al. J. Pharmacol. Exp. Ther. 2002, 303, 3, 1044-1051.
Cortices were dissected out from brains of 200-300 g Sprague-Dawley rats (Charles River Laboratories, L'Arbresle, France). Tissues were homogenized in 10 volumes (vol/wt) of ice-cold 50 mM Hepes-NaOH (pH 7.4) using a Polytron disrupter (Kinematica AG, Luzern, Switzerland) and centrifuged for 30 min at 40,000 g. (4° C.). […] Protein concentration was determined by the Bradford method (Bio-Rad protein assay, Reinach, Switzerland) with bovine serum albumin as standard.
Membranes were thawed and resuspended in binding buffer containing 20 mM HEPES-NaOH, 3 mM MgCl2, 3 mM CaCl2, 100 mM NaCl, pH 7.4. […] Radioactivity was determined by liquid scintillation spectrometry using a 96-well plate reader (TopCount, Perkin-Elmer, Downers Grove, USA).
The inhibition curves were generated using the Prism GraphPad program (Graph Pad Software Inc, San Diego, USA). […] The mean of IC50 obtained from at least three independent experiments of selected molecules performed in duplicate were calculated.

T1 sequence (P31424 21-1203): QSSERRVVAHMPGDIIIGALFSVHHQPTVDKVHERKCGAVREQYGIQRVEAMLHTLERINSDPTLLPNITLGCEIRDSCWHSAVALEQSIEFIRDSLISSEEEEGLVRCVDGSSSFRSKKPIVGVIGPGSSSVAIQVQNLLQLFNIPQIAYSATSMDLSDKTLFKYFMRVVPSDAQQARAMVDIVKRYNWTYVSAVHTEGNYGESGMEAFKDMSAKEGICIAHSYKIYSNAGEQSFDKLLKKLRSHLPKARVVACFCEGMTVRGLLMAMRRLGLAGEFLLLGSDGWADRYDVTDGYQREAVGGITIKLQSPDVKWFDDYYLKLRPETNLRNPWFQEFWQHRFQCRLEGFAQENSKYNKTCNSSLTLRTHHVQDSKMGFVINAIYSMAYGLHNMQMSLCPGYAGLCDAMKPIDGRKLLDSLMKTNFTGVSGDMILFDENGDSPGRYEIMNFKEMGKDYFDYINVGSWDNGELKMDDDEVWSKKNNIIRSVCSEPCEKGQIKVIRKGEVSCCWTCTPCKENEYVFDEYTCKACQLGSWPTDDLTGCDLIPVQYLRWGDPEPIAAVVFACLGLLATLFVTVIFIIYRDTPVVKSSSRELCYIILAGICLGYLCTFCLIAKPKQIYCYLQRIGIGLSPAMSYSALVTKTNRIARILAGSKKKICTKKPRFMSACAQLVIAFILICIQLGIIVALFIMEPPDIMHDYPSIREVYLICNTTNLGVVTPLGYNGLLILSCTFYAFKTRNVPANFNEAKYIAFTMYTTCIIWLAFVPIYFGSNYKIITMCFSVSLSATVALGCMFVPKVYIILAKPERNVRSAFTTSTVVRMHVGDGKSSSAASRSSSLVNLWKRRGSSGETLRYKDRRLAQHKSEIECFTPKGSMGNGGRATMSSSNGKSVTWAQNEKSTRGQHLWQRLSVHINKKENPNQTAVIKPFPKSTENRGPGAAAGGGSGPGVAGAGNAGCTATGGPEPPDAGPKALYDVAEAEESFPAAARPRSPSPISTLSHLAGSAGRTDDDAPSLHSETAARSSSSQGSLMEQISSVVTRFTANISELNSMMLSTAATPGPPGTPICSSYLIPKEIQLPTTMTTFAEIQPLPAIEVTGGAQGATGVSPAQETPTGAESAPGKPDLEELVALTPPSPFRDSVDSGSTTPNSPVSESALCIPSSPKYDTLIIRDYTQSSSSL

On to `O=C(Nc1ccc(Cl)cc1CN1C(=O)c2ccccc2C1=O)c1ccccc1O` [CPPHA, reference compound], for which, on mGluR5 [1], the “activity in rat cortical astrocytes culture in the absence of added glutamate” value (“activity” for short) is “inactive”. Moreover, the “activation of rat mGluR5 receptors without co-addition of glutamate” value on rat mGluR5 is given as “activating”. Turning to `O=C(Nc1ccccc1)O[C@H]1CCCN(C(=O)c2ccc(F)cc2)C1` [Example 4, Phenyl-carbamic acid (S)-1-(4-fluoro-benzoyl)-piperidin-3-yl ester], on rat mGluR5, the half-maximal effective concentration (EC50) is less than 1000 nM.

With `Fc1cccc(/C=N/N=C/c2cccc(F)c2)c1` [DFB, reference compound], on mGluR5 [1], the “activity” value was “inactive”. In addition, on rat mGluR5, the “activation of rat mGluR5 receptors without co-addition of glutamate” value is given as “activating”. In the case of `O=C(Nc1cccc(F)c1)O[C@H]1CCCN(C(=O)c2ccc(F)cc2)C1` [Example 5, (3-Fluoro-phenyl)-carbamic acid (S)-1-(4-fluoro-benzoyl)-piperidin-3-yl ester], the EC50 on rat mGluR5 was less than 1000 nM. Regarding `O=C(NC1CCCC1)O[C@H]1CCCN(C(=O)c2ccc(F)cc2)C1` [Example 7, Cyclopentyl-carbamic acid (S)-1-(4-fluoro-benzoyl)-piperidin-3-yl ester], the EC50 at rat mGluR5 was more than 10000 nM. Compound `O=C(Nc1ccc(F)cc1)N[C@H]1CCCN(C(=O)c2ccc(F)cc2)C1` [Example 11, 1-[(S)-1-(4-Fluoro-benzoyl)-piperidin-3-yl]-3-(4-fluoro-phenyl)-urea] yielded a melting point of 228 to 231 °C. Further, the EC50 at rat mGluR5 was in the range of 1000 to 10000 nM. As to `O=C(Nc1ccccc1F)O[C@H]1CCCN(C(=O)c2ccc(F)cc2)C1` [Example 6, (2-Fluoro-phenyl)-carbamic acid (S)-1-(4-fluoro-benzoyl)-piperidin-3-yl ester], the EC50 on rat mGluR5 is less than 1000 nM. Consider `O=C(Nc1ccccc1)OC1CCN(C(=O)c2ccc(F)cc2)C1` (stereo not drawn) [Example 12, (Phenyl)-carbamic acid-1-(4-fluoro-benzoyl)-pyrrolidin-3-yl ester], for which the melting point was 173 to 175 °C. For the same compound, the half-maximal effective concentration (EC50) on rat mGluR5 lay within 1000 to 10000 nM.

As for `O=C(Nc1ccc(Cl)cc1)O[C@H]1CCCN(C(=O)c2ccc(F)cc2)C1` [Example 2, (4-Chloro-phenyl)-carbamic acid (S)-1-(4-fluoro-benzoyl)-piperidin-3-yl ester], the EC50 on rat mGluR5 lay in the range of 1000 to 10000 nM. Take `O=C(NC1CCCCC1)O[C@H]1CCCN(C(=O)c2ccc(F)cc2)C1` [Example 8, Cyclohexyl-carbamic acid (S)-1-(4-fluoro-benzoyl)-piperidin-3-yl ester]: on rat mGluR5, the EC50 lay in the range of 1000 to 10000 nM. As for `N#Cc1cccc(C(=O)Nc2cc(-c3ccccc3)nn2-c2ccccc2)c1` [CDPPB, reference compound], the “activity” value at mGluR5 [1] is “inactive”. Besides, the “activation of rat mGluR5 receptors without co-addition of glutamate” value at rat mGluR5 is recorded as “activating”. For `O=C(Nc1ccncc1)O[C@H]1CCCN(C(=O)c2ccc(F)cc2)C1` [Example 9, Pyridin-4-yl-carbamic acid (S)-1-(4-fluoro-benzoyl)-piperidin-3-yl ester], the EC50 on rat mGluR5 lay within 1000 to 10000 nM.

In the case of `O=C(Nc1ccc(F)cc1)O[C@H]1CCCN(C(=O)c2ccc(F)cc2)C1` [Example 1, (4-Fluoro-phenyl)-carbamic acid (S)-1-(4-fluoro-benzoyl)-piperidin-3-yl ester], at mGluR5 [2], the IC50 is less than 30 µM. The EC50 at rat mGluR5 was in the range of 1000 to 10000 nM. On to `COc1ccc(NC(=O)O[C@H]2CCCN(C(=O)c3ccc(F)cc3)C2)cc1` [Example 3, (4-Methoxy-phenyl)-carbamic acid (S)-1-(4-fluoro-benzoyl)-piperidin-3-yl ester], for which the EC50 on rat mGluR5 was 1000 to 10000 nM. Take `O=C(NCc1ccc(F)cc1)O[C@H]1CCCN(C(=O)c2ccc(F)cc2)C1` [Example 10, (4-Fluoro-benzyl)-carbamic acid (S)-1-(4-fluoro-benzoyl)-piperidin-3-yl ester]: the EC50 at rat mGluR5 fell in the range of 1000 to 10000 nM.

In general, EC50 refers to the concentration giving half of the maximal effect. What is called melting point is the temperature, or range, at which the solid turns liquid. The term IC50 denotes the concentration needed to halve the response being measured.
